Columns and labels:
GIRK2 [1] = biological target: T1, GIRK2 (Mus musculus, UniProt P48542); experiment: fluorescence (ACMA) K+ flux assay, purified channel reconstituted in liposomes; type: biochemical
T1 construct: gene Kcnj6; amino acids 52-380
T1 sequence (P48542 52-380): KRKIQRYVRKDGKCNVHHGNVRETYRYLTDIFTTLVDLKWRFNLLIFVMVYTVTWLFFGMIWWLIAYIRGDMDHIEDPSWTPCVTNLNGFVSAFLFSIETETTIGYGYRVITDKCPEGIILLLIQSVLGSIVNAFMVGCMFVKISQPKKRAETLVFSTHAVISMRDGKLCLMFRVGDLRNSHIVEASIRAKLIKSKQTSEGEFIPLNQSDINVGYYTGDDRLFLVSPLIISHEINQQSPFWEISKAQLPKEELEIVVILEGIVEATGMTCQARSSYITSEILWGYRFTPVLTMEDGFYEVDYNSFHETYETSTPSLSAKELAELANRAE

GIRK2 [2] = biological target: T1, GIRK2; experiment: fluorescence (ACMA) K+ flux assay, purified channel reconstituted in liposomes with brain PIP2; type: biochemical

| EC50 (GIRK2 [1]) | Compound | fluorescence (ACMA) K+ flux assay, purified channel reconstituted in liposomes w (GIRK2 [2]) |
| --- | --- | --- |
| 25.1 ± 3.3 µM | CCCCCCCC(=O)OC[C@H](COP(=O)(O)O[C@@H]1[C@H](O)[C@H](O)[C@@H](OP(=O)(O)O)[C@H](OP(=O)(O)O)[C@H]1O)OC(=O)CCCCCCC [diC8-PIP2] | – |
| – | CCO [ethanol] | > 20 mM |

Reference: paper PMC5496853, “Dual activation of neuronal G protein-gated inwardly rectifying potassium (GIRK) channels by cholesterol and alcohol” (Scientific Reports, 2017)
